Measurements taken from a melting point compilation (Tetko et al.; mined from patent text by program, amines drawn as free bases though some values may be those of a salt).

| Structure (SMILES) | melting point [°C] |
| --- | --- |
| OC(CNCCCCCCOCCCCc1ccccc1)c1ccc2c(n1)COC(c1ccccc1)O2 (stereo not drawn) | 67 to 73 |
| O=S(=O)(c1ccccc1)N1CCC(C(=NCc2ccc(F)cc2)c2ccc(F)cc2)CC1 | 114 to 116 |
| CC(C)(C)c1cc(OC(=O)c2ccccc2)ccc1O | 120 to 121 |
| O=C(N[C@@H](Cc1ccc2ccccc2c1)[C@H](O)CCl)OCc1ccccc1 | 173 to 174 |
| CCCS(=O)c1ncc(C(F)(F)F)cc1Cl (stereo not drawn) | 51 to 53 |
| Cc1cc(C)cc(C(=O)Cc2ccnc(NC(=O)OC(C)(C)C)c2)c1 | 133 to 136 |
| Cc1c(C(=O)O)cnn1-c1cc(C(F)(F)F)ccc1Cl | 124 to 125 |
| CC(C)(C)c1ccc(C(O)CCCN2CCC(=C3c4ccccc4C=Cc4ccccc43)CC2)cc1 (stereo not drawn) | 141 to 142 |
| O=C(O)c1cnn2c(C3CC3)cc(-c3ccc(Cl)cc3)nc12 | 242 to 243 |
| CN1Cc2c(CO)ncn2-c2ccc(F)cc2C1=O | 221 to 223 |
| COC(=O)CN(c1cc2cc(OC)c(=O)oc2cc1OCc1ccccc1)S(N)(=O)=O | 178 to 179 |
| N[C@H](C1CCCCC1)C(O)(c1ccccc1)c1ccccc1 | 181 to 182 |
| CC(C)CCOc1c(-c2ccc(S(C)(=O)=O)cc2)cnn(-c2ccc(F)cc2)c1=O | 117 to 120 |
| COc1cc(C(=O)N(C(C)C)C2CCCCC2)ccc1Cn1c(-c2ccccc2Cl)nc2ncccc21 | 121 to 123 |
| CCCC(C)(C)c1cc(C=O)cc(C(C)(C)CCC)c1O | 90 to 92 |
| C1=CC2=NC=NC23CCNCC3N1 (stereo not drawn) | 94 to 95 |
| COCCCNS(=O)(=O)NC(=O)OCCCc1ccc(OCCOC)cc1Oc1ncc(Cl)cc1Cl | 87.9 to 89 |
| CC(C)OC(=O)N1CCC(c2nc3cc(-c4ccc(C(N)=O)cn4)ccc3o2)CC1 | 227 to 230 |
| O=C1CCC(c2ccccc2)c2cc(Cl)ccc2N1 (stereo not drawn) | 184 to 186 |
| CN=C1CN(c2ccccc2)C(=O)N1C | 160 to 162 |

| Structure (SMILES) | melting point [°C] |
| --- | --- |
| O=C(Nc1ccccc1)N(Cc1ccc(Br)cc1)C1CCCC1 | 130 to 132 |
| C[C@](O)(COc1ccc(F)cc1)C(=O)Nc1ccc(C#N)c(C(F)(F)F)c1 | 139 to 140 |
| NS(=O)(=O)c1ccc(NN=Cc2ccc(Br)cc2)cc1 | 190 to 192 |
| CCc1cccc(C)c1NC(=S)NC(C)(C)C | 94 to 96 |
| Cc1ncc(C#N)c(Nc2ccc3[nH]ccc3c2C)c1-c1cc2ccccc2o1 | 154 to 155 |
| CN1C(C(=O)Nc2ccccn2)=C(OC(=O)C=Cc2ccccc2)c2ccccc2S1(=O)=O | 156 to 158 |
| N#Cc1ccc(C(O)(Cc2ccccc2)Cc2ccccc2)cc1 | 153 |
| NC(=O)c1sc2ncnc(-c3cccc(NC(=O)Nc4ccncc4)c3)c2c1N | 177 to 179 |
| CC/C(=C(\c1ccc(I)cc1)c1ccc(OCCCCCBr)cc1)c1ccccc1 | 78 to 80 |
| CC(=O)Nc1nc2c(Oc3cc(-c4ccc(C(F)(F)F)cc4OS(=O)(=O)C(F)(F)F)ncn3)cccc2s1 | 209 to 212 |
| O=C1Cn2c(nc3ccccc3c2=O)-c2ccccc2N1 | 318 to 319 |
| COc1cc(S)c(C(C)=O)c(OC)c1 | 57 to 59 |
| CCCSc1ncc(CC(NC(C)=O)C(=O)O)n1Cc1ccccc1Cl (stereo not drawn) | 182 to 184 |
| COC(=O)c1ccc(CN2CCN(S(=O)(=O)c3ccccc3)CC2)cc1 | 145 to 146 |
| CC12C=CC(=O)C=C1CCC1C2C(O)CC2(C)C(C(=O)CO)=CCC12 (stereo not drawn) | 213 to 215 |
| CCOC1CN(Cc2cc(OC)c(OC)c(OC)c2)Cc2cc(OC)c(O)cc21 (stereo not drawn) | 94 to 96 |
| Cc1ccc(-c2ccnc3c(C(=O)c4cccs4)cnn23)cc1NC(=O)CC(C)C | 185 to 187 |
| CC(=O)OC1C(N2CCCCC2)CC2C3CCC4CCC(N5CCCCC5)CC4(C)C3CCC21C (stereo not drawn) | 156 to 161 |
| O=c1[nH]nc(-c2ccccc2[N+](=O)[O-])o1 | 157 to 158 |
| COc1ccc(C2=NN(C3CCN(C(=O)CCCOc4ccc5[nH]c(=O)ccc5c4)CC3)C(=O)[C@@H]3CC=CC[C@H]23)cc1OC | 146 to 149 |

| Structure (SMILES) | melting point [°C] |
| --- | --- |
| COC(=O)c1ccc2c(c1)S(=O)(=O)c1ccccc1N=C2 | 181 to 182 |
| CC(C)c1ccc2c(c1)C(=O)N(C)C(c1ccc(C(C)(C)C)cc1)C2C(=O)O (stereo not drawn) | 204 to 207 |
| OCC(Cl)=C(Cl)CC(O)(Cn1cncn1)C1(Cl)CC1 (stereo not drawn) | 130 to 132 |
| CCS(=O)c1ccc(-c2nc3n(c2-c2ccncc2)CCC3)cc1 (stereo not drawn) | 108 to 110 |
| CC(=O)Oc1ccc2cccc(OS(=O)(=O)C(F)(F)F)c2n1 | 90 |
| CC(C)(C)c1ccc(NC(=O)NCc2ccc(-n3c(-c4cccnc4N)nc4cccnc43)cc2)cc1 | 210 to 212 |
| CCOC(=O)c1cc(Oc2ccccc2)ccc1OC | 52 |
| Cc1ccc(Cl)c(OCC(O)CNCCNC(=O)NCCCO[N+](=O)[O-])c1 (stereo not drawn) | 109 to 111 |
| Cc1ccc(C)c(SCCCCCCCC(=O)O)c1 | 60 to 63 |
| CC(=O)c1cc2c(c(Br)c1O)CCCC2 | 127 to 130 |
| CCCc1c(OCCCCCCc2ccc3cc(OC)c(OC)cc3c2)ccc(C(=O)O)c1O | 102 to 104 |
| COc1c(N2CCC(c3ccccc3CN)C2)c(F)cc2c(=O)c(C(=O)O)cn(C3CC3)c12 (stereo not drawn) | 170 to 174 |
| Cc1ccc2sc3cc(C(=O)O)ccc3c(=O)c2c1 | > 250 |
| CS(=O)(=O)c1ccc(-c2cc(C(F)F)cn2-c2ccc(F)cc2)cc1 | 98 to 100 |
| Cc1scc2c1N(C(=O)N1CCC(CCCCN3CCCCC3)CC1)c1ccccc1NC2=O | 209 to 210 |
| CN(C(=O)c1ccc(Cl)cc1)[C@@H]1CCN(C(=O)Nc2ccc(F)nc2)C[C@H]1c1ccc(Cl)c(Cl)c1 | 156 to 158 |
| O=C(O)CN1C(=O)C(=Cc2c(-c3ccccc3)[nH]c3ccccc23)SC1=S | 258 to 262 |
| CCOc1ccc(C(=O)N2CC(C(=O)OC)N(S(=O)(=O)c3ccc(OC)cc3)Cc3ccccc32)cc1 (stereo not drawn) | 187 to 190 |

The remaining lines, values ahead:

| melting point [°C] | Structure (SMILES) |
| --- | --- |
| 138 | Cc1nc(-c2ccccc2)[nH]c1-c1cnc(-c2ccccc2)nc1 |
| 53 to 54 | Cc1noc(CCCCCCCOc2ccc(C3=NCCO3)cc2Cl)c1CO |
| 215 | COc1cc2nc(N3CCN(C#N)CC3)nc(N)c2cc1OC |
| 122 to 124 | Cc1ccc(-c2nc(CCC(O[Si](C)(C)C(C)(C)C)c3ccc(C=O)s3)c(C)o2)cc1 (stereo not drawn) |
| 194 to 195 | CC(C)n1nc(-c2sc(Nc3ccccn3)nc2-c2ccccc2)ccc1=O |
| > 300 | COc1ccc(-c2n[nH]c3c2c(=O)n(-c2ccccc2)c2ncccc32)cc1 |
| 155 to 157 | Nc1cnccc1Oc1ccc2[nH]ccc2c1 |
| 120 to 122 | Clc1ccc2c(C=Cc3ccccc3)ccnc2c1 |
| 169 to 172 | C=CCNc1cc(C(=O)O)cc(S(N)(=O)=O)c1-c1ccccc1 |
| 92.5 | O=C1N(c2cc(Cl)cc(Cl)c2)C(=O)C2(Cc3ccc(Br)cc3)CNCCN12 (stereo not drawn) |
| 127 to 129 | COc1ccc2c(c1)CCC1C2CCC2(C)C(=O)CC(C)C12 (stereo not drawn) |
| 85 to 87 | C=C(C)COc1ccc2c(C)cc(=O)oc2c1C(=O)C=Cc1cccc(OC)c1 |
| 85 to 88 | CCCCCCCCCCCCCCCCCCOc1cc(OCCCOc2ccc(O)cc2)cc(C(=O)OC)c1 |
| 147 to 148 | N#CCCNC(=O)c1ccnc(-c2cccc3nn(Cc4cccc(C(F)(F)F)c4)cc23)c1 |
| 150 to 151 | COC(=O)Nc1nc2c(C(C)C)cc(SC3=C(O)C[C@@](CCc4ccc(O)cc4)(C(C)C)OC3=O)c(C)c2s1 |
| 98.1 | c1ccc(C(c2ccc3nccnc3c2)n2cnnc2)cc1 (stereo not drawn) |
| 235 to 236 | COC(=O)c1ccc2[nH]cc(C(C)=O)c2c1 |
| 103 to 106 | O=c1oc(-c2ccccc2)cc(O)c1Cc1cccnc1SCc1ccccc1 |
| 270 to 273 | Cn1nnnc1-c1cn(C)c2cc(Cl)ccc2c1=O |
| 258 to 260 | O[C@H]1CC[C@H](Nc2nccc(-c3c[nH]c4ccccc34)n2)CC1 |

| melting point [°C] | Structure (SMILES) |
| --- | --- |
| 135 | CNCc1cccc(-c2ccc(CC3SC(=O)NC3=O)c(C)c2)c1 (stereo not drawn) |
| 75 to 77 | c1cncc(-c2ccsc2)c1 |
| 126 to 127 | COC(=O)C(C)(C)C(Cc1ccc(OC)cc1)NS(=O)(=O)c1ccc(C)cc1 (stereo not drawn) |
| 215 to 218 | Oc1ccc(-c2cnc(S)o2)cc1O |
| 180 to 182 | Cc1cc(NC(=O)C(CS)Cc2ccccc2)c(C)c(C(=O)O)c1 (stereo not drawn) |
| 296 to 298 | CN(C)c1ccc2c(c1)C(=O)CC(c1ccccc1O)=N2 |
| 156 to 157 | COc1ccc(C(=O)Cc2c(Cl)cncc2Cl)c2c1OC(c1ccccc1)(c1ccccc1)O2 |
| 135 to 138 | CCCCc1oc2ccccc2c1Cc1ccc(OS(=O)(=O)c2ccc(C(=O)O)c(O)c2)cc1 |
| 210 | CCCC(=O)Nc1n[nH]c2cc(-c3ccc(CC)cc3)ccc12 |
| 236 | Nc1ccc(-c2nnsc2-c2ccc(N)cc2)cc1 |
| 139 to 142 | Cn1c(I)nc2c(C(F)(F)F)nc(NCCc3ccccc3)nc21 |
| 246 to 247 | CC(C)CC(NC(=O)c1cc(F)ccc1SSc1ccc(F)cc1C(=O)NC(CC(C)C)C(=O)O)C(=O)O (stereo not drawn) |
| 82 to 84 | CCCCOCCCNC(c1ccccc1)C(O)c1ccccc1 (stereo not drawn) |
| 158 to 159 | CC12CCC(=O)C=C1CCCC2n1cc(-c2ccccc2)nn1 (stereo not drawn) |
| 101 to 103 | COc1ccc2c(-c3ccccc3F)noc2c1 |
| 240 to 244 | Cc1c(Cc2ccc([N+](=O)[O-])cc2)c(=O)oc2cc(OCc3nnn[nH]3)cc(OCc3nnn[nH]3)c12 |
| 234 to 236 | CCN(CC)c1ccc(-n2c(CC(=O)O)c(C(=O)O)c3cc(Oc4ccc(C(F)(F)F)cc4)ccc32)cc1 |
| 258 to 259 | O=C(O)c1ccc2c(c1)C=C(Cn1ccnc1)CO2 |
| 141 to 142 | CC(C)(C)c1cc(OCCCCc2nnn[nH]2)cc(C(C)(C)C)c1O |
| 143 | CC(=O)OC1CSC(Oc2cncc(F)c2)C(OC(C)=O)C1OC(C)=O (stereo not drawn) |
